Source: the RepoRT retention time repository (doi:10.1016/j.chroma.2015.11.014)

Experiment: RP, Agilent ZORBAX Eclipse Plus C18, 150 × 2.1 mm, 3.5 µm, 40 °C, 0.3 mL/min, estimated dead time 1.1 min; A: water + 0.1% formic acid; B: acetonitrile + 0.1% formic acid; gradient (min/%B) 0/2 1/2 2/20 16.5/98 22/98
Conditions: stereoisomer not certain

| Compound | LC retention time [min] |
| --- | --- |
| COc1cc(N)nc(OC)n1 | 4.66 |
| CC12CCC3c4cc(O)c(O)cc4CCC3C1CCC2=O (stereo not drawn) | 9.98 |
| CNCC(c1ccc(O)cc1)C1(O)CCCCC1 (stereo not drawn) | 5.66 |
| O=C1CC(c2ccccc2)Oc2ccccc21 (stereo not drawn) | 12.6 |
| CN(C)c1cccc(O)c1 | 4.07 |
| Nc1nc(=S)c2[nH]cnc2[nH]1 | 2.69 |
| CSc1nc(N)nc2nc[nH]c12 | 4.91 |
| CCCCCCOC(=O)c1ccccc1C(=O)OCCCCCC | 18.1 |
| CCC(C)(C)C(=O)OC1CC(C)C=C2C=CC(C)C(CCC3CC(O)CC(=O)O3)C21 (stereo not drawn) | 15.4 |
| Cc1ncc([N+](=O)[O-])n1CCO | 4.81 |
| N=C(N)c1ccc(OCCCCCCOc2ccc(C(=N)N)cc2)cc1 | 5.92 |
| CC(=O)C1CCC2C3CCC4=CC(=O)CCC4(C)C3CCC12C (stereo not drawn) | 13.8 |
| CCC(C)C1OC2(C=CC1C)CC1CC(CC=C(C)C(OC3CC(OC)C(OC4CC(OC)C(NC(C)=O)C(C)O4)C(C)O3)C(C)C=CC=C3COC4C(O)C(C)=CC(C(=O)O1)C34O)O2 (stereo not drawn) | 16.2 |
| COCCN(C(=O)CS(=O)(=O)O)c1c(C)cccc1C | 6.76 |
| Cc1cccc(N(C)C(=S)Oc2ccc3ccccc3c2)c1 | 15.5 |
| CCN(CC)C(=O)C(C#N)=Cc1cc(O)c(O)c([N+](=O)[O-])c1 | 9.38 |
| O=P(Cc1ccccc1)(c1ccccc1)c1ccccc1 | 10.8 |
| CC(C)(C)NCC(O)c1ccc(O)c(CO)c1 (stereo not drawn) | 4.69 |
| CCOc1ccc2ccccc2c1C(=O)NC1C(=O)N2C1SC(C)(C)C2C(=O)O (stereo not drawn) | 10.6 |
| CCCCCCCCCCCCCC[P+](CCCCCC)(CCCCCC)CCCCCC | 17.1 |
| CCc1cccc(C)c1N(C(=O)C(=O)O)C(C)COC (stereo not drawn) | 9.91 |
| CN(C)CCC=C1c2ccccc2COc2ccccc21 | 7.45 |
| CNCC(CC(=O)O)CC(C)C (stereo not drawn) | 4.84 |
| CCC(CC)Nc1c([N+](=O)[O-])cc(C)c(C)c1[N+](=O)[O-] | 16.2 |
| CC(=O)CCCCn1c(=O)c2c(ncn2C)n(C)c1=O | 6.77 |
| CC(=O)Nc1cc(N)cc(C(=O)O)c1 | 4.46 |

| Compound | LC retention time [min] |
| --- | --- |
| CN1CC(=O)N2C(Cc3c([nH]c4ccccc34)C2c2ccc3c(c2)OCO3)C1=O (stereo not drawn) | 9.8 |
| O=C(c1ccccc1)c1ccc2n1CCC2C(=O)O (stereo not drawn) | 9.5 |
| COC(=O)c1ccc(O)cc1 | 7.59 |
| COc1cc(Cc2cnc(N)nc2N)cc(OC)c1O | 4.78 |
| CN(C)c1nc2c(ncn2C2OC(CO)C(O)C2O)c(=O)[nH]1 (stereo not drawn) | 4.57 |
| NC(=O)c1ccc[n+](C2OC(COP(=O)(O)OP(=O)([O-])OCC3OC(n4cnc5c(N)ncnc54)C(O)C3O)C(O)C2O)c1 (stereo not drawn) | 2.09 |
| CCCCCCCCn1sccc1=O | 11.9 |
| CCCCN1C=CN(C)C1C (stereo not drawn) | 4.73 |
| O=c1[nH]cnc2[nH]ncc12 | 3.15 |
| N#CSCSc1nc2ccccc2s1 | 12.4 |
| Cc1cc(C)c(C(=O)P(=O)(c2ccccc2)c2ccccc2)c(C)c1 | 14.1 |
| C=CCC1=C(C)C(OC(=O)C2C(C=C(C)C)C2(C)C)CC1=O (stereo not drawn) | 16.1 |
| CC12C=CC(=O)C=C1CCC1C2C(=O)CC2(C)C1CCC2(O)C(=O)CO (stereo not drawn) | 8.47 |
| CCCCC(CC)COP(=O)(Oc1ccccc1)Oc1ccccc1 (stereo not drawn) | 17 |
| Cc1cc(C(C)(C)C)c(O)c(C)c1CC1=NCCN1 | 7.43 |
| Cc1cc(NS(=O)(=O)c2ccc(N)cc2)no1 | 7.25 |
| COCC(=O)N(c1c(C)cccc1C)C(C)C(=O)OC (stereo not drawn) | 10.2 |
| CCCCCCCCCCCCCCCC[N+](C)(C)CC | 13 |
| CCCCCCCCCCCCCC[N+](C)(C)Cc1ccccc1 | 12.8 |
| CN(C)c1ccc(-c2nc3ccccc3[nH]2)cc1 | 6.52 |
| O=c1[nH]c(=O)c2cn[nH]c2[nH]1 | 2.85 |
| Cc1c(NC=O)c(=O)n(-c2ccccc2)n1C | 5.62 |
| Nc1ccc(O)c(C(=O)O)c1 | 2.18 |
| c1ccc2sc(SSN3CCOCC3)nc2c1 | 13.8 |
| Cc1ccc(C(=O)c2cc(O)c(O)c([N+](=O)[O-])c2)cc1 | 11.1 |
| CC1CC2C(C(O)CC3(C)C2CCC3(O)C(=O)CO)C2(C)C=CC(=O)C=C12 (stereo not drawn) | 9.02 |

| Compound | LC retention time [min] |
| --- | --- |
| CC(O)C(=O)Nc1ccccc1 (stereo not drawn) | 6.61 |
| O=C1NS(=O)(=O)c2ccccc21 | 5.2 |
| CCCCP(=O)(O)O | 4.77 |
| CCCCCCCCCCC(C(=O)c1ccc(OC)cc1)[N+](C)(C)C (stereo not drawn) | 11.3 |
| CC12CCC3c4ccc(O)cc4CCC3C1CCC2=O (stereo not drawn) | 11.2 |
| CCCCCCCCCCCCCC[N+](C)(C)C | 11.5 |
| CC(=O)OCC[N+](C)(C)C | 2.06 |
| Cc1cc(OCCOCC[N+](C)(C)Cc2ccccc2)ccc1C(C)(C)CC(C)(C)C | 12.3 |
| CN(C)C(=N)N=C(N)N | 1.52 |
| O=C(CCc1ccc(O)cc1)c1c(O)cc(O)cc1O | 8.77 |
| COc1ccc(OC)cc1 | 10.1 |
| NC(=O)N1c2ccccc2C=Cc2cc(O)ccc21 | 7.48 |
| Nc1ccc(O)c([N+](=O)[O-])c1 | 4.69 |
| CCOc1nc2cccc(C(=O)O)c2n1Cc1ccc(-c2ccccc2-c2nn[nH]n2)cc1 | 10 |
| CCNc1nc(NC(C)(C)C)[nH]c(=O)n1 | 5.98 |
| CCC(CC)OC1C=C(C(=O)O)CC(N)C1NC(C)=O (stereo not drawn) | 5.65 |
| O=S(=O)(O)c1nc2ccccc2s1 | 6.5 |
| O=c1c2ccccc2[nH]c2ccccc12 | 8.5 |
| CNCc1ccc(CSCCNC(=C[N+](=O)[O-])NC)o1 | 4.77 |
| CC(C)COP(=O)(OCC(C)C)OCC(C)C | 14 |
| CC(C(=O)O)c1ccc(CC(C)(C)O)cc1 (stereo not drawn) | 8.21 |
| O=c1c(-c2ccc(O)cc2)coc2cc(O)ccc12 | 7.74 |
| Cc1cc(C2CC2)nc(Nc2ccccc2)n1 | 10.8 |
| CN(C)CCOC(c1ccccc1)c1ccccc1 | 7.72 |
| CN1CCC23CCCCC2C1Cc1ccc(O)cc13 (stereo not drawn) | 5.97 |
| O=C(O)CC1(C(=O)O)CCCCC1 | 7.49 |

Results, then the molecule that gave them:

| LC retention time [min] | Compound |
| --- | --- |
| 7.67 | OCCN(CCO)c1nc(N2CCCCC2)c2nc(N(CCO)CCO)nc(N3CCCCC3)c2n1 |
| 7.63 | Cc1cccc(Nc2ccncc2S(=O)(=O)NC(=O)NC(C)C)c1 |
| 9.12 | S=c1[nH]c2ccccc2s1 |
| 4.47 | CC(=O)Nc1ccc(O)c(O)c1 |
| 2.11 | Cc1ncc(CO)c(CO)c1O |
| 5.39 | O=c1[nH]c(=O)c2ccccc2[nH]1 |
| 9.35 | CCCCC1=NC2(CCCC2)C(=O)N1Cc1ccc(-c2ccccc2-c2nn[nH]n2)cc1 |
| 11.8 | CC(C(=O)O)c1cccc(Oc2ccccc2)c1 (stereo not drawn) |
| 9.8 | CSc1ccc(O)cc1C |
| 4.61 | CCOC(=O)c1cnc(N)nc1N |
| 5.88 | c1ccc2n[nH]nc2c1 |
| 8.07 | O=c1c(O)c(-c2ccc(O)c(O)c2)oc2cc(O)cc(O)c12 |
| 6.25 | CCC1OC(=O)C(C)C(OC2CC(C)(OC)C(O)C(C)O2)C(C)C(OC2OC(C)CC(N(C)C)C2O)C(C)(O)CC(C)CN(C)C(C)C(O)C1(C)O (stereo not drawn) |
| 7.35 | CC1(C)OCC2OC3(C(=O)O)OC(C)(C)OC3C2O1 (stereo not drawn) |
| 5.64 | NC(=O)c1ccccc1 |
| 8.64 | CCC(C)C(=O)OC1CC(O)C=C2C=CC(C)C(CCC(O)CC(O)CC(=O)O)C21 (stereo not drawn) |
| 9.05 | O=P(O)(OCc1ccccc1)OCc1ccccc1 |
| 4.58 | CC(=O)Nc1ccc(OC2OC(C(=O)O)C(O)C(O)C2O)cc1 (stereo not drawn) |
| 4.97 | COc1ccc(Cc2cnc(N)nc2N)cc1OC |
| 2.23 | Nc1nc2c(ncn2COC(CO)CO)c(=O)[nH]1 |

| LC retention time [min] | Compound |
| --- | --- |
| 5.82 | CC(C)NC(=O)NS(=O)(=O)c1cnccc1Nc1cccc(CO)c1 |
| 9.08 | c1ccc2sc(NC3CCCCC3)nc2c1 |
| 9.2 | O=C(C[P+](c1ccccc1)(c1ccccc1)c1ccccc1)OCc1ccccc1 |
| 14.9 | CCCCCCCCCCCCCCCCCC[N+](C)(C)Cc1ccccc1 |
| 8.83 | CCOC(=O)c1ccc(O)cc1 |
| 6.88 | CC(C)NCC(O)COc1cccc2[nH]c3ccccc3c12 (stereo not drawn) |
| 10.9 | COC(=O)C1=C(C)NC(C)=C(C(=O)OC)C1c1ccccc1[N+](=O)[O-] |
| 8.26 | S=c1[nH]c2ccccc2o1 |
| 10.5 | COc1ccc2c(c1)CCC1C2CCC2(C)C(=O)CCC12 (stereo not drawn) |
| 8.23 | CC(C)(c1ccc(OCC(O)CO)cc1)c1ccc(OCC(O)CO)cc1 (stereo not drawn) |
| 4.71 | Cc1c(N(C)C)c(=O)n(-c2ccccc2)n1C |
| 8.59 | Cc1cccc(C(=O)O)c1 |
| 5.4 | Cc1ccc(S(=O)(=O)O)cc1 |
| 9.59 | CCCCCCCCOS(=O)(=O)O |
| 11.7 | CCCCCCCC[N+](C)(C)CCCCCCCC |
| 7.28 | CCCc1nn(C)c2c(=O)[nH]c(-c3cc(S(=O)(=O)N4CCN(C)CC4)ccc3OCC)nc12 |
| 16.4 | CCCCCCCC[P+](CCCCCCCC)(CCCCCCCC)CCCCCCCC |
| 14.1 | O=C(NC1CCCCC1)N(Cc1ccccc1)Cc1ccccc1 |
| 4.7 | C=C(C)C([O-])=NCCC[N+](C)(C)C |
| 7.98 | c1ccc([P+](CCC2OCCCO2)(c2ccccc2)c2ccccc2)cc1 |
